Reference: US20040024024A1, “Aromatic sulfone hydroxamates and their use as protease inhibitors” (priority 2001, published 2004)

Columns and labels:
Test in all cases: In vitro MMP inhibition, Ki determination (fluorogenic substrate II)
Format in all cases: biochemical
Human recombinant MMP-14 = biological target: T1, Human recombinant MMP-14 (Homo sapiens, UniProt P50281)
T1 construct: The catalytic domain enzyme was expressed in E. coli inclusion bodies, solubilized in urea; made in house
Outline: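 Refolded E. coli-expressed MMP-14 catalytic domain, APMA- or trypsin-activated, incubated 1 h at room temperature with 4 μM fluorogenic substrate II in pH 7.5 Tris/NaCl/CaCl2 buffer; fluorescence read at 330/420 nm. Ki from Morrison-equation non-linear regression, substrate at or below Km, uncorrected for substrate.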

Human recombinant MMP-1 = biological target: T2, Human recombinant MMP-1 (Homo sapiens, UniProt P03956)
T2 construct: made in house; host or cells: MMP-1-transfected HT-1080 cells (spent media)
T2 sequence (P03956 100-469): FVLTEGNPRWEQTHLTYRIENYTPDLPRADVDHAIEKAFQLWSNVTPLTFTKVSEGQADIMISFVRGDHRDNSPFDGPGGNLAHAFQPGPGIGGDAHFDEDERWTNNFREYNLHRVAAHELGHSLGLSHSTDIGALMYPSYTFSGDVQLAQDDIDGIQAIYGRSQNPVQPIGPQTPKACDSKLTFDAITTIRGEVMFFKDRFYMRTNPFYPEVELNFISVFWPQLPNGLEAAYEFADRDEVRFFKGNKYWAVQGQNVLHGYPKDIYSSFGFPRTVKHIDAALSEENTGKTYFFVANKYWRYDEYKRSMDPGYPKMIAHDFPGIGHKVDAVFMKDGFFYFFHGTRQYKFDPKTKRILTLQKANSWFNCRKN
Outline: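 Activated human recombinant MMP-1 (APMA- or trypsin-activated; proenzyme from transfected HT-1080 cells) incubated 1 hr at room temperature with 4 μM MCA/Dpa fluorogenic substrate II at or below Km in Tris buffer pH 7.5 with CaCl2. Fluorescence ex 330/em 420 nm; Ki from Morrison-equation non-linear regression, uncorrected for substrate.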

Human recombinant MMP-13 = biological target: T3, Human recombinant MMP-13 (Homo sapiens, UniProt P45452)
T3 construct: made in house; host or cells: baculovirus / insect cells
Outline: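 Baculovirus-expressed proenzyme, APMA-activated; 4 μM fluorogenic MCA/Dpa peptide substrate (II), at or below Km, in Tris buffer pH 7.5 with CaCl2, 1 hr at room temperature. Fluorescence at 330/420 nm; Ki from non-linear regression with Morrison's equation, not corrected for substrate.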

[1] = substrate (II) 4 μM, 1 hr room temperature, apparent Ki, values in parenthesis

Compound | Ki (Human recombinant MMP-14; value in parenthesis) | Ki (Human recombinant MMP-1; value in parenthesis) | Ki (Human recombinant MMP-13; value in parenthesis) | Ki (Human recombinant MMP-14; value in parentheses) | Ki (Human recombinant MMP-1; value in parentheses) | Ki (Human recombinant MMP-13; value in parentheses) | further results
O=C(NO)C1(S(=O)(=O)c2ccc(OCCCc3cccc(-c4ccc(F)c(F)c4)c3)cc2)CCOCC1 [Example 170] | > 10000 nM | > 10000 nM | 6.79 nM |  |  |  | 
O=C(NO)C1(S(=O)(=O)c2ccc(OCCCc3cccc(-c4ccc(Cl)c(Cl)c4)c3)cc2)CCOCC1 [Example 169] | > 10000 nM | > 10000 nM | 20.4 nM |  |  |  | 
COCCN1CCC(C(=O)NO)(S(=O)(=O)c2ccc(OCCc3cccc(-c4ccccc4)c3)cc2)CC1 [Example 45] |  |  |  |  |  |  | Ki (Human recombinant MMP-14; [1]): > 10000 nM; Ki (Human recombinant MMP-1; [1]): > 10000 nM; Ki (Human recombinant MMP-13; [1]): 0.62 nM
COc1ccc(-c2cccc(CCOc3ccc(S(=O)(=O)C4(C(=O)NO)CCOCC4)cc3)c2)cc1C [Example 119] | > 10000 nM | > 10000 nM | 31.4 nM |  |  |  | 
O=C(NO)C1(S(=O)(=O)c2ccc(OCCCc3nc(-c4ccc(OC(F)(F)F)cc4)no3)cc2)CCN(Cc2ccccc2)CC1 [Example 93] | > 10000 nM | > 10000 nM | 9.29 nM |  |  |  | 
C#Cc1ccc(-c2cccc(CCCOc3ccc(S(=O)(=O)C4(C(=O)NO)CCN(CCOC)CC4)cc3)c2)cc1 [Example 646] |  |  |  | 4300 nM | > 10000 nM | 0.16 nM | 
Cc1cc(-c2cccc(CCCOc3ccc(S(=O)(=O)C4(C(=O)NO)CCOCC4)cc3)c2)ccc1Cl [Example 166] | > 10000 nM | > 10000 nM | 63.4 nM |  |  |  | 
O=C(NO)C1(S(=O)(=O)c2ccc(OCCCc3cccc(-c4cc(Cl)cc(Cl)c4)c3)cc2)CCOCC1 [Example 172] | > 10000 nM | > 10000 nM | 71.1 nM |  |  |  | 
COCCN1CCC(C(=O)NO)(S(=O)(=O)c2ccc(OCCc3cccc(-c4cccc(F)c4)c3)cc2)CC1 [Example 545] |  |  |  | > 10000 nM | > 10000 nM | 1.11 nM | 
CC(C)c1ccc(-c2cccc(CCOc3ccc(S(=O)(=O)C4(C(=O)NO)CCOCC4)cc3)c2)cc1 [Example 109] | > 10000 nM | > 10000 nM | 93.1 nM |  |  |  | 
COCCN1CCC(C(=O)NO)(S(=O)(=O)c2ccc(OCCCc3cccc(-c4cccs4)c3)cc2)CC1 [Example 510] |  |  |  | 2180 nM | > 10000 nM | 0.25 nM | 
CCN1CCC(C(=O)NO)(S(=O)(=O)c2ccc(OCCCc3cccc(-c4ccc(Cl)cc4)c3)cc2)CC1 [Example 526] |  |  |  | > 10000 nM | > 10000 nM | 3.96 nM | 
O=C(NO)C1(S(=O)(=O)c2ccc(OCCCc3nc(C4CCCCC4)no3)cc2)CCN(C2CC2)CC1 [Example 137] | > 10000 nM | > 10000 nM | 0.976 nM |  |  |  | 
COCCN1CCC(C(=O)NO)(S(=O)(=O)c2ccc(OCCCc3nc(-c4ccc(CC(C)C)cc4C)no3)cc2)CC1 [Example 128] | > 10000 nM | > 10000 nM | 13.8 nM |  |  |  | 
O=C(NCCSc1ccc(S(=O)(=O)C2(C(=O)NO)CCOCC2)cc1)c1nc2ccccc2s1 [Example 598] |  |  |  | > 10000 nM | > 10000 nM | 0.27 nM | 
COCCN1CCC(C(=O)NO)(S(=O)(=O)c2ccc(OCCCc3nc(-c4cccc5ccccc45)no3)cc2)CC1 [Example 199] | > 10000 nM | > 10000 nM | 3.09 nM |  |  |  | 
COCCN1CCC(C(=O)NO)(S(=O)(=O)c2ccc(OCCc3cccc(-c4ccncc4)c3)cc2)CC1 [Example 538] |  |  |  | 1700 nM | > 10000 nM | 0.184 nM | 
COCCN1CCC(C(=O)NO)(S(=O)(=O)c2ccc(OCCCc3cncc(-c4ccccc4)c3)cc2)CC1 [Example 508] |  |  |  | 2790 nM | 4850 nM | 0.141 nM | 
COCCN1CCC(C(=O)NO)(S(=O)(=O)c2ccc(OCCc3cccc(-c4ccc(F)cc4)c3)cc2)CC1 [Example 544] |  |  |  | > 10000 nM | > 10000 nM | 0.898 nM | 
O=C(NCCSc1ccc(S(=O)(=O)C2(C(=O)NO)CCN(C3CC3)CC2)cc1)c1cc2ccccc2o1 [Example 542] |  |  |  | > 10000 nM | > 10000 nM | 0.86 nM | 
COCCN1CCC(C(=O)NO)(S(=O)(=O)c2ccc(OCCCc3cccc(-c4ccccc4F)c3)cc2)CC1 [Example 512] |  |  |  | > 10000 nM | > 10000 nM | 1.07 nM | 
COCCN1CCC(C(=O)NO)(S(=O)(=O)c2ccc(OCCc3cccc(-c4cccnc4)c3)cc2)CC1 [Example 539] |  |  |  | 1180 nM | 9130 nM | 0.21 nM | 
COCCN1CCC(C(=O)NO)(S(=O)(=O)c2ccc(OCCCc3cccc(-c4cccnc4)c3)cc2)CC1 [Example 509] |  |  |  | 4160 nM | > 10000 nM | 0.297 nM | 
COCCN1CCC(C(=O)NO)(S(=O)(=O)c2ccc(OCCc3cccc(-c4ccc(F)cc4F)c3)cc2)CC1 [Example 546] |  |  |  | > 10000 nM | > 10000 nM | 1.06 nM | 
COCCN1CCC(C(=O)NO)(S(=O)(=O)c2ccc(OCCCc3nc(-c4ccc(Br)cc4C)no3)cc2)CC1 [Example 135] | 9510 nM | > 10000 nM | 0.761 nM |  |  |  | 
COCCN1CCC(C(=O)NO)(S(=O)(=O)c2ccc(OCCc3ccc(-c4ccc(C#N)cc4)cc3)cc2)CC1 [Example 543] |  |  |  | 3090 nM | > 10000 nM | 0.23 nM | 
COCCN1CCC(C(=O)NO)(S(=O)(=O)c2ccc(OCCNC(=O)c3cc4ccccc4o3)cc2)CC1 [Example 553] |  |  |  | 2260 nM | > 10000 nM | 0.259 nM | 

Now from value to compound, other results behind:

Ki (Human recombinant MMP-14; value in parenthesis) | Ki (Human recombinant MMP-1; value in parenthesis) | Ki (Human recombinant MMP-13; value in parenthesis) | Ki (Human recombinant MMP-14; value in parentheses) | Ki (Human recombinant MMP-1; value in parentheses) | Ki (Human recombinant MMP-13; value in parentheses) | Compound | further results
 |  |  | 962 nM | 850 nM | 0.81 nM | CCCC(=O)CCCOc1ccc(S(=O)(=O)C2(C(=O)NO)CCOCC2)cc1 [Example 505] | 
 |  |  | > 10000 nM | > 10000 nM | 7.33 nM | O=C(NO)C1(S(=O)(=O)c2ccc(OCCCc3cccc(-c4cccc(O)c4)c3)cc2)CCOCC1 [Example 530] | 
> 10000 nM | > 10000 nM | 20.1 nM |  |  |  | O=C(NO)C1(S(=O)(=O)c2ccc(OCCc3cccc(-c4ccc(Cl)cc4Cl)c3)cc2)CCOCC1 [Example 124] | 
 |  |  | 681 nM | 1470 nM | 0.23 nM | CCCCC(=O)CCCOc1ccc(S(=O)(=O)C2(C(=O)NO)CCOCC2)cc1 [Example 506] | 
> 10000 nM | > 10000 nM | 4.2 nM |  |  |  | O=C(NO)C1(S(=O)(=O)c2ccc(OCCc3cccc(-c4ccccc4Cl)c3)cc2)CCOCC1 [Example 114] | 
 |  |  | > 10000 nM | > 10000 nM | 20.2 nM | O=C(NO)C1(S(=O)(=O)c2ccc(OCCCc3cccc(-c4ccc(O)cc4)c3)cc2)CCOCC1 [Example 529] | 
 |  |  | 6680 nM | > 10000 nM | 0.226 nM | CCCCc1ccc(CCCOc2ccc(S(=O)(=O)C3(C(=O)NO)CCOCC3)cc2)cn1 [Example 533] | 
 |  |  | 845 nM | > 10000 nM | 1.51 nM | O=C(NO)C1(S(=O)(=O)c2ccc(OCCCOc3cncnc3)cc2)CCOCC1 [Example 559] | 
 |  |  | 2440 nM | > 10000 nM | 1.78 nM | CCc1ccc(COc2ccc(S(=O)(=O)C3(C(=O)NO)CCOCC3)cc2)cn1 [Example 552] | 
> 10000 nM | > 10000 nM | 21 nM |  |  |  | Cc1ccc(-c2cccc(CCOc3ccc(S(=O)(=O)C4(C(=O)NO)CCOCC4)cc3)c2)cc1C [Example 117] | 
 |  |  | 9270 nM | 2740 nM | 2.97 nM | O=C(NCCOc1ccc(S(=O)(=O)C2(C(=O)NO)CCOCC2)cc1)c1c[nH]c2ccccc12 [Example 562] | 
 |  |  | 689 nM | > 10000 nM | 0.261 nM | O=C(NO)C1(S(=O)(=O)c2ccc(OCCCOCc3ccncc3)cc2)CCOCC1 [Example 555] | 
 |  |  | 444 nM | 3590 nM | 0.19 nM | CCCCCCCOc1ccc(S(=O)(=O)C2(C(=O)NO)CCOCC2)cc1 [Example 507] | 
> 10000 nM | > 10000 nM | 11.4 nM |  |  |  | O=C(NO)C1(S(=O)(=O)c2ccc(OCCc3cccc(-c4cc(F)cc(F)c4)c3)cc2)CCOCC1 [Example 110] | 
 |  |  | > 10000 nM | > 10000 nM | 2.72 nM | O=C(NO)C1(S(=O)(=O)c2ccc(OCCc3ccc(-c4ccc(O)cc4)cc3)cc2)CCOCC1 [Example 531] | 
 |  |  | 6810 nM | > 10000 nM | 0.493 nM | CCCc1ccc(CCCOc2ccc(S(=O)(=O)C3(C(=O)NO)CCOCC3)cc2)cn1 [Example 534] | 
 |  |  | > 10000 nM | > 10000 nM | 14.5 nM | O=C(NO)C1(S(=O)(=O)c2ccc(OCCOc3cncnc3)cc2)CCOCC1 [Example 554] | 
> 10000 nM | > 10000 nM | 6.39 nM |  |  |  | O=C(NO)C1(S(=O)(=O)c2ccc(OCCc3cccc(-c4cccc(F)c4)c3)cc2)CCOCC1 [Example 111] | 
> 10000 nM | > 10000 nM | 5.1 nM |  |  |  | Cc1ccccc1-c1cccc(CCOc2ccc(S(=O)(=O)C3(C(=O)NO)CCOCC3)cc2)c1 [Example 116] | 
